We go through 29 compounds from patent publication US7612201B2, “Pyrazole compounds” (Vernalis (Cambridge) Limited, priority 2002, dated 2009).

Experiment [1] has as its target T1, human full-length HSP90 (Homo sapiens, UniProt P08238).
T1 construct: E. coli expressed human full-length HSP90 protein; made in house; host or cells: E. coli
The experiment can be described thus: Fluorescence polarization (FP) binding assay. As to conditions: FP assay (asterisk in table), activity range. An excerpt: Fluorescence Polarization Assay
Fluorescence polarization {also known as fluorescence anisotropy} measures the rotation of a fluorescing species in solution, where the larger molecule the more polarized the fluorescence emission. When the fluorophore is excited with polarized light, the emitted light is also polarized. The molecular size is proportional to the polarization of the fluorescence emission.
The fluoroscein-labelled probe—RBT0045864-FAM—
[drawing 121] binds to HSP90 {full-length human, full-length yeast or N-terminal domain HSP90} and the anisotropy {rotation of the probe:protein complex} is measured.
Test compound is added to the assay plate, left to equilibrate and the anisotropy measured again. Any change in anisotropy is due to competitive binding of compound to HSP90, thereby releasing probe.
Chemicals are of the highest purity commercially available and all aqueous solutions are made up in AR water. • 1) Costar 96-well black assay plate #3915 • 2) Assay buffer of (a)100 mM Tris pH7.4; (b) 20 mM KCl; (c) 6 mM MgCl2. Stored at room temperature. • 3) BSA (bovine serum albumen) 10 mg/ml (New England Biolabs # B9001S) • 4) 20 mM probe in 100% DMSO stock concentration. Stored in the dark at RT. Working concentration is 200 nM diluted in AR water and stored at 4° C. Final concentration in assay 80 nM. • 5) E. coli expressed human full-length HSP90 protein, purified >95% (see, e.g., Panaretou et al., 1998) and stored in 50 μL aliquots at −80° C.
Protocol • 1) Add 100 μl 1× buffer to wells 11 A and 12A (=FP BLNK) • 2) Prepare assay mix—all reagents are kept on ice with a lid on the bucket as the probe is light-sensitive.
• 3) Aliquot 100 μl assay mix to all other wells • 4) Seal plate and leave in dark at room temp for 20 minutes to equilibrate
Compound Dilution Plate—1×3 Dilution Series • 1) In a clear 96-well v-bottom plate—{# VWR 007/008/257} add 10 μl 100% DMSO to wells B1 to H11 • 2) To wells A1 to A11 add 17.5 μl 100% DMSO • 3) Add 2.5 μl cpd to A1. This gives 2.5 mM {50×} stock cpd—assuming cpds 20 mM. • 4) Repeat for wells A2 to A10. Control in columns 11 and 12. • 5) Transfer 5 μl from row A to row B—not column 12. Mix well. • 6) Transfer 5 μl from row B to row C. […] In column 11 {provides standard curve} only add compound B11-H11. Add 2 μl of 100 mM standard cpd to wells B12-H12 {is positive control } • 13)The Z′ factor is calculated from zero controls and positive wells. It typically gives a value of 0.7-0.9.
The compounds tested in the above assay were assigned to one of two activity ranges, namely A=<10 μM; B=>10 μM, and those assignments are reported above.
Background: Polarisation of emitted light reports the rotation of a fluorescent probe.

The target of experiment [2] is T2, yeast HSP90 (Saccharomyces cerevisiae, UniProt P02829).
T2 construct: made in house; host or cells: E. coli
T2 sequence (P02829 whole entry): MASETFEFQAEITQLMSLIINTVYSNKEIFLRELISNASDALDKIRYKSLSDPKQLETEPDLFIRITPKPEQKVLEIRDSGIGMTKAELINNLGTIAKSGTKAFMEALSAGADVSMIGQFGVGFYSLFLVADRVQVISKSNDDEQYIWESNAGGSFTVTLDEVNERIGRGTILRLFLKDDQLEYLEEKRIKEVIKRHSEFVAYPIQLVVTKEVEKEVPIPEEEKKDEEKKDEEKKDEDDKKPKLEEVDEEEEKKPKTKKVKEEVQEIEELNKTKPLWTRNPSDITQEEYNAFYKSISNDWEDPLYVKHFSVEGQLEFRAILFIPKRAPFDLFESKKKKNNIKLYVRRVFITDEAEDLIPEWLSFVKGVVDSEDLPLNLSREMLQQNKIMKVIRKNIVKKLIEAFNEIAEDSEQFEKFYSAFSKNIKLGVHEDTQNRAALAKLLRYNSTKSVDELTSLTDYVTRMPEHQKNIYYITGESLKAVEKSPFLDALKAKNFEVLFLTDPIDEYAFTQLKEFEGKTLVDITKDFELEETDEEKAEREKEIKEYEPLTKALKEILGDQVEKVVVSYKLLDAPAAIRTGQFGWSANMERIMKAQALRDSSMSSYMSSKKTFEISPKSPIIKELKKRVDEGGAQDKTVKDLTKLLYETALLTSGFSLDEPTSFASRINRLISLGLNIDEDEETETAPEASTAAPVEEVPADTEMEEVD
As to the kind of experiment: Malachite green ATPase assay. The format is biochemical. The following applies: activity range. An excerpt:
The intrinsic ATPase activity of HSP90 may be measured using yeast HSP90 as a model system. The assay, based on the use of malachite green for the measurement of inorganic phosphate, was used to test the HSP90 inhibitory activity of the compounds of the Examples herein.
Malachite Green ATPase Assay
Chemicals are of the highest purity commercially available and all aqueous solutions are made up in AR water. Because of the need to minimise contamination with inorganic phosphate, precautions should be taken with solutions and apparatus used in the assays. Glassware and pH meters are rinsed with double distilled or deionised water before use and, wherever possible, plastic ware should be used. Gloves are worn for all procedures. • (1) Greiner 384-well (Greiner 781101) or Costar 384-well flat-bottomed polystyrene multiwell plates (VWR). • (2) Assay buffer of (a) 100 mM Tris-HCl, pH 7.4, (b) 150 mM KCl, (c) 6 mM MgCl2. Stored at room temperature. • (3) 0.0812% (w/v) malachite green (M 9636, Sigma Aldrich Ltd., Poole, UK). Stored at room temperature. • (4) 2.32% (w/v) polyvinyl alcohol USP (P 1097, Sigma Aldrich Ltd, Poole, UK) in boiling water (see Comment 1), allowed to cool, and stored at room temperature. • (5) 5.72% (w/v) ammonium molybdate in 6 M hydrochloric acid. Stored at room temperature. • (6) 34% (w/v) sodium citrate. Stored at room temperature. • (7) 100 mM ATP, disodium salt, special quality (47699, Sigma Aldrich). Stored at −20° C. • (8) E. coli expressed yeast HSP90 protein, purified >95% (see, e.g., Panaretou et al., 1998) and stored in 50 uL aliquots at −80° C.
Method • 1. Dilute test compounds to 500 μM in AR water (DMSO concentration will be 2.5%). Transfer 2.5 μl of these compounds directly from the daughter plate to the assay plate, giving a final assay concentration of 100 μM. To obtain 12 point IC50 values, perform serial dilutions 1:2 to produce a range of assay concentrations from 100 μM to 97.6 nM (2.5% DMSO), and transfer 2.5 μl of each concentration into the assay plate. Column 1 in the assay plate contains no compound, as a negative control. An additional row with no compound is also used as a background. • 2. Prepare ATP by diluting 100 mM stock to 925 μM with assay buffer, and aliquot 5 μl of diluted ATP to each well including controls (final assay concentration 370 μM). • 3. Add 5 μl of buffer to background row. • 4. Dilute enzyme preparation to 1.05 μM with assay buffer, and aliquot 5 μl into each compound well and to the negative control column. • 5. Collect the reagents to the bottom of the well, cover plate with plate seal and incubate overnight at 37 degC. • 6. First thing in the morning prepare the Malachite Green Reagent. Add 2 parts of Malachite Green Solution, 1 part of Polyvinyl Alcohol Solution, 1 part of Ammonium Molybdate Solution, and 2 parts of AR water. • 7. Invert to mix, and leave for approximately 1 hour until the colour turns from brown to golden yellow. • 8. Add 40 μl of Malachite Green Reagent to each well, allow 5 mins for colour to develop. • 9. Add 5 μl of Sodium Citrate Reagent to each well (see comment 2) • 10. Re-cover with plate seal and shake on plate shaker for at least 15 mins. • 11. Measure Absorbance at 620 nm using a suitable plate reader (e.g. Victor, Perkin Elmer Life Sciences, Milton Keynes, UK).
Comments • (1) The polyvinyl alcohol dissolves in boiling water with difficulty and stirring for 2-3 h is required. • (2) The time interval between addition of the malachite green reagent and the sodium citrate should be kept as short as possible in order to reduce the non-enzymatic hydrolysis of ATP. Once the sodium citrate is added, the colour is stable for up to 4 h at room temperature. • (3) Compounds can be added to the assay plates using a Biomek FX Robot (Beckman Coulter).

T1 sequence (P08238 whole entry): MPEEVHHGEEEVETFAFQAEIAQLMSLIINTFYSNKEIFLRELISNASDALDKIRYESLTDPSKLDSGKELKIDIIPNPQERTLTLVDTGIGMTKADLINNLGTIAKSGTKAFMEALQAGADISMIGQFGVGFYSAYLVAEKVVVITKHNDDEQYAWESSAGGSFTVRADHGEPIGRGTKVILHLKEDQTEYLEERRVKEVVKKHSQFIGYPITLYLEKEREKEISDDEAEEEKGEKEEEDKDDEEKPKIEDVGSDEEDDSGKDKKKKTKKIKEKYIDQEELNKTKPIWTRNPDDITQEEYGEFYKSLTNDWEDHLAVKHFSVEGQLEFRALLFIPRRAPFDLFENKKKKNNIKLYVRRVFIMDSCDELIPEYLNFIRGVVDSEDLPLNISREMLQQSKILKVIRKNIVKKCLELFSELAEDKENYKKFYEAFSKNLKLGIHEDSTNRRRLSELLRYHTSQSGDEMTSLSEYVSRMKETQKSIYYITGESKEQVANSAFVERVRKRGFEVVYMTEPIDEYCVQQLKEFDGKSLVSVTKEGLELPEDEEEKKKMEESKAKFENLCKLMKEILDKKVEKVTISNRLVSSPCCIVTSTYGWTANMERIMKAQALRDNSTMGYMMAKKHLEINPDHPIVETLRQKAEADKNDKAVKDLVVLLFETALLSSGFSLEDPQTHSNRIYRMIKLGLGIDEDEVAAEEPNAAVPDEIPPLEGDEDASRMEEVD

Usually IC50 stands for the concentration needed to halve the response being measured. High values mean a need for much substance, low ones inhibition by little substance. With `Cc1[nH]nc(-c2cc(Cl)c(O)cc2O)c1N1CCNCC1` [Example 49, 4-Chloro-6-(5-methyl-4-piperazin-1-yl-1H-pyrazol-3-yl)-benzene-1,3-diol], the IC50 in experiment [1] was under 10 µM.

For the compound `Cc1c[nH]c2cc(O)c(-c3n[nH]cc3N3CCNCC3)cc12` [Example 54, 3-Methyl-5-(4-piperazin-1-yl-1H-pyrazol-3-yl)-1H-indol-6-ol], the IC50 in experiment [1] is over 10 µM.

With `CC(=O)Nc1ccc(-c2n[nH]cc2N2CCNCC2)c(O)c1` [Example 53, 3-[4-Acetamido-2-hydroxyphenyl]-4-(piperazin-1-yl)-1H-pyrazole], the half-inhibitory concentration (IC50) in experiment [1] is over 10 µM.

In experiment [1], `CCOC(=O)CN1CCN(c2c[nH]nc2-c2cc(Cl)c(O)cc2O)CC1` [Example 45] registered an IC50 of under 10 µM.

`OCc1[nH]nc(-c2cc(Cl)c(O)cc2O)c1N1CCNCC1` [Example 50, 4-Chloro-6-(5-hydroxymethyl-4-piperazin-1-yl-1H-pyrazol-3-yl)-benzene-1,3-diol]: in experiment [1], the half-maximal inhibitory concentration (IC50) was under 10 µM.

For the compound `COc1ccc(CC(=O)N2CCN(c3c[nH]nc3-c3cc(Cl)c(O)cc3O)CC2)cc1` [Example 42], the IC50 in experiment [1] is over 10 µM.

In experiment [1], `CC(=O)c1ccc(CN2CCN(c3c[nH]nc3-c3cc(Cl)c(O)cc3O)CC2)cc1` [Example 47] had an IC50 of under 10 µM.

On to `OCCNC1CCN(c2c[nH]nc2-c2cc(Br)c(O)cc2O)CC1` [Example 98], for which the 50% inhibitory concentration (IC50) in experiment [2] was under 50 µM.

`Cc1ccc(CCc2cc(-c3n[nH]cc3N3CCNCC3)c(O)cc2O)cc1` [Example 72] displayed a half-inhibitory concentration (IC50) in experiment [2] of under 50 µM.

In turn, `COc1ccc(OC)c(CCc2cc(-c3n[nH]cc3N3CCNCC3)c(O)cc2O)c1` [Example 67] registered an IC50 in experiment [2] of under 50 µM.

In the case of `C#CC[N+]1(CC#C)CCN(c2c[nH]nc2-c2cc(Cl)c(O)cc2O)CC1` [Example 27], the IC50 in experiment [2] is under 50 µM.

In turn, `N#Cc1cccc(CN2CCN(c3c[nH]nc3-c3cc(Cl)c(O)cc3O)CC2)c1` [Example 19] displayed an IC50 in experiment [2] of under 50 µM.

The compound `COc1ccc(CCc2cc(-c3n[nH]cc3N3CCNCC3)c(O)cc2O)cc1` [Example 76] showed an IC50 in experiment [2] of under 50 µM.

In experiment [2], `Oc1cc(O)c(-c2n[nH]cc2N2CCN(Cc3ccc(-c4cnns4)cc3)CC2)cc1Cl` [Example 38] came in with an IC50 of under 50 µM.

`O=C(O)c1cccc(CN2CCN(c3c[nH]nc3-c3cc(Cl)c(O)cc3O)CC2)c1` [Example 29] displayed a half-maximal inhibitory concentration (IC50) in experiment [2] of under 50 µM.

Turning to `CNC(=O)c1cccc(CN2CCN(c3c[nH]nc3-c3cc(Cl)c(O)cc3O)CC2)c1` [Example 44], the IC50 in experiment [1] was under 10 µM.

Consider `Cn1ncc(N2CCNCC2)c1-c1cc(Br)c(O)cc1O` [Example 56], for which the 50% inhibitory concentration (IC50) in experiment [2] was over 50 µM.

Compound `O=S(=O)(c1ccsc1)N1CCN(c2c[nH]nc2-c2cc(Cl)c(O)cc2O)CC1` [Example 48] showed an IC50 in experiment [1] of under 10 µM.

In turn, `O=C(O)c1ccc(CN2CCN(c3c[nH]nc3-c3cc(Cl)c(O)cc3O)CC2)cc1` [Example 35] had an IC50 in experiment [2] of under 50 µM.

Turning to `NNC(=O)CN1CCN(c2c[nH]nc2-c2cc(Cl)c(O)cc2O)CC1` [Example 8, {4-[3-(5-Chloro-2,4-dihydroxy-phenyl)-1H-pyrazol-4-yl]-piperazin-1-yl}-acetic acid hydrazide], in experiment [2], the 50% inhibitory concentration (IC50) is over 50 µM.

Compound `N#CCOc1cc(O)c(-c2n[nH]cc2N2CCN(CC#N)CC2)cc1Cl` [Example 11] showed an IC50 in experiment [2] of over 50 µM.

`CC(C)n1cc(N2CCNCC2)c(-c2cc(Br)c(O)cc2O)n1` [Example 61] returned an IC50 in experiment [2] of over 50 µM.

Consider `Oc1cc(O)c(-c2n[nH]cc2N2CCN(CCc3ccccc3)CC2)cc1Cl` [Example 34], for which the IC50 in experiment [2] is under 50 µM.

In experiment [2], `Oc1cc(O)c(-c2n[nH]cc2N2CCN(Cc3ncon3)CC2)cc1Cl` [Example 17] registered a 50% inhibitory concentration (IC50) of under 50 µM.

The compound `Oc1cc(O)c(-c2c(N3CCNCC3)cnn2Cc2ccccc2)cc1Br` [Example 62] showed an IC50 in experiment [2] of over 50 µM.

In turn, `Oc1cc(O)c(-c2n[nH]cc2N2CCC(NCc3ccc(Cl)cc3)CC2)cc1Br` [Example 82] displayed an IC50 in experiment [2] of under 50 µM.

`O=C(O)CN1CCN(c2c[nH]nc2-c2cc(Cl)c(O)cc2O)CC1` [Example 46] came in with an IC50 in experiment [1] of under 10 µM.

Regarding `OCCN1CCN(c2c[nH]nc2-c2cc(Cl)c(O)cc2O)CC1` [Example 9, 4-Chloro-6-{4-[4-(2-hydroxy-ethyl)-piperazin-1-yl]-1H-pyrazol-3-yl}-benzene-1,3-diol], the IC50 in experiment [2] is over 50 µM.

In experiment [2], `N#CCN1CCN(c2c[nH]nc2-c2cc(Cl)c(O)cc2O)CC1` [Example 10] yielded an IC50 of over 50 µM.
